These results are taken from patent publication US20090258869A1, “METHODS AND COMPOUNDS FOR TREATMENT OR PREVENTION OF SUBSTANCE-RELATED DISORDERS” (The Regents of the University of California, priority 2008, published 2009).

The test system of data set [1] is Tyrosine hydroxylase (TH). Description: TH protein levels (immunoreactivity) by Western blot in ethanol-treated SH-SY5Y cells. It is filed as cell-based, human. The protocol: (§1) Cell culture. […] MEM nonessential amino acid solution (Invitrogen).
(§2) Treatments. Cells were treated with ethanol for 12-48 h in low serum media by replacing the media with ethanol every 12 h. […] PI-PLC was incubated with cells at a concentration of 0.3 u/ml for 1 h as described previously (1). Anti-GDNF neutralizing antibodies were dissolved in PBS and were used at a concentration of 10 μg/ml.
(§3) Western blot and immunoprecipitation. Cells were collected and lysed in RIPA buffer plus protease and phosphatase inhibitor cocktails for Western blot and immunoprecipitation as described previously (1,30). Briefly, 15 μg of each homogenate was subjected to an SDS-PAGE gel and blotted on a nitrocellulose membrane for Western blot analysis with anti-TH antibody or other primary antibodies, followed by reprobing with anti-Actin antibody. Alternatively, 500 μg of each homogenate was incubated with 5 μg of anti-TH, anti-HSP90 or anti-Akt antibodies in TBS-T buffer overnight at 4° C.1 followed by a 2-h incubation with Protein G agarose beads. Immunoprecipitates were separated on an SDS-PAGE gel for Western blot analysis.
(§4) Quantification and statistical analysis.

Data set [2] deals with GDNF gene expression. The settings on record: in vitro in SH-SY5Y cells and in the midbrain region containing the VTA in vivo; previously reported; cited from earlier work.
For data set [3], the system named is Hsp90. Description: Hsp90 protein levels by Western blot in SH-SY5Y cells. It is filed as cell-based, human. The protocol:
as §1, §2, §3, §4
In general terms: In western blotting, separated proteins are transferred to a membrane and probed.

Data set [4] has as its system Tyrosine hydroxylase (TH). Description: Pulse-chase analysis of 35S-labeled TH protein stability in SH-SY5Y cells. It is filed as cell-based, human. Here is the method:
as §1
Pulse-chase analysis. 24 h after ethanol treatment, cells were labeled following a pulse-chase procedure as described previously (31) with modifications. Briefly, cells were incubated with methionine/cystine-free DMEM (Invitrogen) containing 1% dialyzed FBS for 1 h and then labeled in the Met/Cysfree medium containing 25 μCi of Amersham Redivue Pro-Mix L-[35S] in vitro Cell Labeling Mix per ml for 3 h. Dialysis of FBS was performed against the Met/Cys-free medium overnight. After labeling, cells were washed twice with the normal medium and chased in the normal medium without ethanol for 2-8 h before homogenizing as described above. Homogenates were centrifuged and protein concentrations of the supernatants were determined. An equal amount of protein from each sample was immunoprecipitated with anti-TH antibody and separated by electrophoresis on an 8% SDS gel. Autoradiography was performed by exposure of the dried gels to Amersham Storage Phosphor Screen and visualization of radioactive signals using the Typhoon 9410 Variable Mode Imager (GE Healthcare).
as §4

The test system of data set [5] is TH mRNA. The settings on record: 100 mM ethanol 12 h or 24 h.
In data set [6] the test system is TH-Hsp90 association. Description: Co-immunoprecipitation of TH with Hsp90 in SH-SY5Y cells. It is filed as cell-based, human. The settings on record: 100 mM ethanol 24 h.
Procedure: Treatments. […] PI-PLC was incubated with cells at a concentration of 0.3 u/ml for 1 h as described previously (1). Anti-GDNF neutralizing antibodies were dissolved in PBS and were used at a concentration of 10 μg/ml.
Data set [7] deals with Akt kinase and Hsp90 association. The settings on record: 100 mM ethanol 24 h.
The conditions of data set [8]: general statement, no test described; cited from earlier work.
Data set [9] has as its system animals. The settings on record: literature; cited from earlier work.
Setting [10] is: 100 mM ethanol 24 h, 25 ng/ml GDNF added for the last 12 h.

For the molecule ibogaine [reference compound], in [1] (100 mM ethanol 24 h, 10 μM ibogaine added for the last 12 h), the “ethanol induced increases in TH levels” value is “inhibited”. Besides, the GDNF gene expression result in data set [2] was “increases”.

For `CCO` [ethanol], in data set [1] (10 mM ethanol, 24 h), the “immunoreactivity of TH” value was “significant increase”. Also, the “duration of ethanol-induced increase in TH protein levels” value in [1] (100 mM ethanol 24 h, detected 24 h after ethanol washout) is “long-lasting”. In addition, the TH protein levels result in data set [1] (100 mM ethanol, after 24 h and 48 h of exposure) was “increase”. Further, the “increase in TH protein levels, dependence on ethanol concentration” value in data set [1] (different concentrations of ethanol, 24 h) is “dose-dependent manner”. For the same molecule, the “protein level of Hsp90” value in [3] (100 mM ethanol alone, 12 h or 24 h) was “did not alter”. The “quantity of 35S-labeled TH protein at all points in the chase time course” value in data set [4] (100 mM ethanol 24 h before pulse-chase, compared to control) is reported as “increase”. Moreover, the “TH mRNA” value in [5] is reported as “did not increase”. Moreover, the “association of TH with Hsp90” value in [6] is “induced”. Also, the “association between Akt kinase and Hsp90” value in data set [7] is listed as “did not alter”.

Take `C[C@@H]1C[C@@H]([C@H](O)CC2CC(=O)NC(=O)C2)C(=O)[C@@H](C)C1` [cycloheximide, reference compound]: the “ethanol-mediated increases in TH protein levels” value in data set [1] (100 mM ethanol 24 h, 30 μg/ml CHX for the last 12 h) is on record as “did not inhibit”.

Turning to `COC1=C2C[C@@H](C)C[C@H](OC)[C@H](O)[C@@H](C)/C=C(\C)[C@H](OC(N)=O)[C@@H](OC)/C=C\C=C(/C)C(=O)NC(=CC1=O)C2=O` [GA, Geldanamycin], in [8], the water solubility entry is recorded as “less than ideal”.

`O=C1CC[C@@]2(O)[C@H]3Cc4ccc(O)c5c4[C@@]2(CCN3CC2CC2)[C@H]1O5` [Naltrexone, naltrexone]: the “ethanol consumption in animal studies” value in data set [9] was “decrease”.

In the case of `CO[C@H]1/C=C\C=C(/C)C(=O)NC2=CC(=O)C(NCCN(C)C)=C(C[C@@H](C)C[C@H](OC)[C@H](O)[C@@H](C)/C=C(\C)[C@@H]1OC(N)=O)C2=O` [17-DMAG, 17-(2 dimethylaminoethyl)amino-17-desmethoxy-geldanamycin], the water solubility result in data set [8] was “more soluble”.

B1: GDNF: Recombinant human GDNF polypeptide (glial cell line derived neurotropic factor) from R&D Systems (protein, UniProt P39905 78-211, looked up)
Glial cell line-derived …: SPDKQMAVLPRRERNRQAAAANPENSRGKGRRGQRGKNRGCVLTAIHLNVTDLGLGYETKEELIFRYCSGSCDAAETTYDKILKNLSRNRRLVSDKVGQACCRPIAFDDDLSFLDDNLVYHILRKHSAKRCGCI
In the case of B1, the “ethanol-mediated increase in TH levels” value in [1] (setting [10]) is given as “reversed”. Also, the Hsp90 immunoreactivity result in data set [3] (setting [10]) is “not due to alteration”. The “quantity of 35S-labeled TH at all points on the chase time course” value in data set [4] (setting [10]) is listed as “downregulates”. In data set [6] (25 ng/ml GDNF added for the last 12 h), the “ethanol-mediated association of Hsp90 with TH” value is “reversed”.
